Assay results taken from article PMC6522941, “Design, synthesis, and anticancer evaluation of novel quinoline derivatives of ursolic acid with hydrazide, oxadiazole, and thiadiazole moieties as potent MEK inhibitors” (Journal of Enzyme Inhibition and Medicinal Chemistry, 2019).

What was measured:
MDA-MB-231 cells = assay: MTT cytotoxic assay, MDA-MB-231; format: cell-based, human; conditions: Homo sapiens, MDA-MB-231, 72 h
Protocol: (§1) Human breast cancer cell line (MDA-MB-231), cervical carcinoma cell line (HeLa), the liver cancer cell line (SMMC-7721) and normal hepatocyte cell line (QSG-7701) were maintained in Dulbecco Modified Eagle Medium (DMEM) containing 4.0 mM L-Glutamine and 4500 mg/L Glucose supplemented with 10% (v/v) foetal bovine serum (FBS) and 100 U/mL penicillin/streptomycin at 37 °C in humidified atmosphere of 5% CO2 and 95% air.
(§2) Exponentially growing MDA-MB-231, Hela and SMMC-7721 cell lines were seeded into 96-well plate for 100 μL and treated with different concentrations of the synthetic compounds for 72 h, and then 10 μL of MTT (10 mg/mL) was added and incubation for 3 ∼ 4 h at 37 °C. The generated purple formazan crystals from viable can be dissolved by adding 100 μL DMSO. The plates were swirled gently for 5 min and quantified by measuring the OD of the plates at the wavelength of 540 nm. Each concentration was repeated in three wells and the same experimental condition was provided for all compounds. The results were expressed as IC50 values with standard deviations, which was defined as the concentration at which 50% survival of cells was discerned. Etoposide was co-assayed as positive control.
(§3) The in vitro cytotoxic activity of derivatives 3a–d, 4a–h, 5a–h, and 6a–h were evaluated by MTT assay against human breast cancer cell line (MDA-MB-231), cervical carcinoma cell line (HeLa), hepatocarcinoma cell line (SMMC-7721) and human normal hepatocyte cell line (QSG-7701). The anticancer drug etoposide was co-assayed as the positive control. All tested compounds were dissolved in DMSO and the stock solutions were diluted by DMEM medium before treatment of the cultured cells.

QSG-7701 cells = assay: MTT cytotoxic assay, normal hepatocyte QSG-7701; format: cell-based, human; conditions: for IC50: Homo sapiens, QSG7701, MTT, normal hepatocyte cell line; for Selectivity: IC50 (QSG-7701)/IC50 (HeLa)
Protocol: as §1, §2, §3

MEK1 = target: T1, MEK1 (Homo sapiens, UniProt Q02750); assay: In vitro MEK1 kinase assay (ADP-Glo); format: biochemical; conditions: recombinant GST-MEK1, GST-ERK2 (inactive) substrate, 10 μM ATP
T1 construct: purchased Carna Biosciences, Kobe, Japan
Protocol: An in vitro kinase assay of MEK1 was performed using ADP-Glo kinase assay (Promega, Madison, WI, USA) according to the manufacturer’s protocol. […] Reactions were stopped by adding 5 μL of ADP-Glo reagent to each well. After incubating at 22 °C for 40 min, 10 μL of the kinase detection reagent was added and the plates were incubated for another 30 min at 22 °C in the dark. The reaction mixture was analysed by EnSpire (PerkinElmer, Waltham, MA, USA).
The Raf/MEK/ERK pathway is the downstream of Ras activation, and the abnormal expression or phosphorylation of the associated proteins is essential for cancer cell proliferation. In this pathway, MEK kinase is an important anticancer target because of its key roles in regulating the cancer cell apoptosis and oncogenic transformation[51]^,[52]. Among MEK proteins, MEK1 and MEK2 are known as substrate-specific kinases which phosphorylate their downstream kinase ERK1/2.

SMMC-7721 cells = assay: MTT cytotoxic assay, SMMC-7721; format: cell-based; conditions: Homo sapiens, 72 h
Protocol: as §1, §2, §3

HeLa cells = assay: MTT cytotoxic assay, HeLa; format: cell-based; conditions: Homo sapiens, 72 h
Protocol: as §1, §2, §3

T1 sequence (Q02750 whole entry): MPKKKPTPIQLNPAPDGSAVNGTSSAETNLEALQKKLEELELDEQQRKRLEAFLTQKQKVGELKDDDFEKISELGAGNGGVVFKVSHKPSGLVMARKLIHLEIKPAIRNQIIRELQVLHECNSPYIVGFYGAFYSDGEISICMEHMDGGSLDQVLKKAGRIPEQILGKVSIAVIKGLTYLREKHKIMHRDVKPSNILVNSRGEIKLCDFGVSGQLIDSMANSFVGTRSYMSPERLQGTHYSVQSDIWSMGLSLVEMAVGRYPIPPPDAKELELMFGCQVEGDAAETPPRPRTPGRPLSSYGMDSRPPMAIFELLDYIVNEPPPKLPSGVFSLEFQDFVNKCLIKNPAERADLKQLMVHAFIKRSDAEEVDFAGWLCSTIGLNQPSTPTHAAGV

IC50 (MEK1) [nM] | SMILES | IC50 (MDA-MB-231 cells) [µM] | IC50 (QSG-7701 cells) [µM] | IC50 (SMMC-7721 cells) [µM] | IC50 (HeLa cells) [µM] | Selectivity (QSG-7701 cells)
72 | CC(=O)NNC(=O)[C@]12CC[C@@H](C)[C@H](C)C1C1=CCC3[C@@]4(C)Cc5cc6cc(F)ccc6nc5C(C)(C)C4CC[C@@]3(C)[C@]1(C)CC2 (some centres unmarked) [Compound 4c, N-[5′-fluoro-ursa-12-en-(2,3)-quinoline-28-oyl]-acetohydrazide] | 1.16 ± 0.06 | > 50 | 19.41 ± 0.12 | 0.99 ± 0.05 | 63.8
37300 | CC(=O)NNC(=O)[C@]12CC[C@@H](C)[C@H](C)C1C1=CCC3[C@@]4(C)Cc5cc6ccccc6nc5C(C)(C)C4CC[C@@]3(C)[C@]1(C)CC2 (some centres unmarked) [Compound 4a, N-[ursa-12-en-(2,3)-quinoline-28-oyl]-acetohydrazide] | 1.84 ± 0.13 | 40.6 ± 2.89 | 17.48 ± 0.1 | 1.18 ± 0.03 | 34.4

Continued, compound first:

SMILES | IC50 (MEK1) [nM] | IC50 (MDA-MB-231 cells) [µM] | IC50 (QSG-7701 cells) [µM] | IC50 (SMMC-7721 cells) [µM] | IC50 (HeLa cells) [µM] | Selectivity (QSG-7701 cells)
C[C@@H]1CC[C@]2(C(=O)O)CC[C@]3(C)C(=CCC4[C@@]5(C)Cc6cc7ccccc7nc6C(C)(C)C5CC[C@]43C)C2[C@H]1C (some centres unmarked) [Compound 3a] | 18600 | 0.75 ± 0.05 | > 50 | 13.4 ± 0.08 | 0.37 ± 0.04 | 
C[C@@H]1CC[C@]2(C(=O)O)CC[C@]3(C)C(=CCC4[C@@]5(C)Cc6cc7cc(F)ccc7nc6C(C)(C)C5CC[C@]43C)C2[C@H]1C (some centres unmarked) [Compound 3c] | 370 | 0.9 ± 0.1 | > 50 | 13.34 ± 0.13 | 1.87 ± 0.03 | 37.0
C[C@@H]1CC[C@]2(C(=O)O)CC[C@]3(C)C(=CCC4[C@@]5(C)Cc6cc7cc(Cl)ccc7nc6C(C)(C)C5CC[C@]43C)C2[C@H]1C (some centres unmarked) [Compound 3d] | 820 | 1.36 ± 0.03 | > 50 | 14.62 ± 0.05 | 1.22 ± 0.08 | 59.5
COc1ccc2nc3c(cc2c1)CC1(C)C(CCC2(C)C1CC=C1C4C(C)C(C)CCC4(C(=O)O)CCC12C)C3(C)C (centres unmarked) [Compound 3b] | 3590 | 0.61 ± 0.07 | > 50 | 12.49 ± 0.08 | 0.36 ± 0.05 | 142.3
